Experimental data reported in ChEMBL document CHEMBL1240323, “3D QSAR studies on a series of potent and high selective inhibitors for three kinases of RTK family” (J Mol Graph Model, 2007).
pIC50: −log10 of the molar value.

Target: Vascular endothelial growth factor receptor 2 (Homo sapiens, UniProt P35968)
Test: Inhibition of KDR

Sequence of Vascular endothelial growth factor receptor 2 (P35968 whole entry): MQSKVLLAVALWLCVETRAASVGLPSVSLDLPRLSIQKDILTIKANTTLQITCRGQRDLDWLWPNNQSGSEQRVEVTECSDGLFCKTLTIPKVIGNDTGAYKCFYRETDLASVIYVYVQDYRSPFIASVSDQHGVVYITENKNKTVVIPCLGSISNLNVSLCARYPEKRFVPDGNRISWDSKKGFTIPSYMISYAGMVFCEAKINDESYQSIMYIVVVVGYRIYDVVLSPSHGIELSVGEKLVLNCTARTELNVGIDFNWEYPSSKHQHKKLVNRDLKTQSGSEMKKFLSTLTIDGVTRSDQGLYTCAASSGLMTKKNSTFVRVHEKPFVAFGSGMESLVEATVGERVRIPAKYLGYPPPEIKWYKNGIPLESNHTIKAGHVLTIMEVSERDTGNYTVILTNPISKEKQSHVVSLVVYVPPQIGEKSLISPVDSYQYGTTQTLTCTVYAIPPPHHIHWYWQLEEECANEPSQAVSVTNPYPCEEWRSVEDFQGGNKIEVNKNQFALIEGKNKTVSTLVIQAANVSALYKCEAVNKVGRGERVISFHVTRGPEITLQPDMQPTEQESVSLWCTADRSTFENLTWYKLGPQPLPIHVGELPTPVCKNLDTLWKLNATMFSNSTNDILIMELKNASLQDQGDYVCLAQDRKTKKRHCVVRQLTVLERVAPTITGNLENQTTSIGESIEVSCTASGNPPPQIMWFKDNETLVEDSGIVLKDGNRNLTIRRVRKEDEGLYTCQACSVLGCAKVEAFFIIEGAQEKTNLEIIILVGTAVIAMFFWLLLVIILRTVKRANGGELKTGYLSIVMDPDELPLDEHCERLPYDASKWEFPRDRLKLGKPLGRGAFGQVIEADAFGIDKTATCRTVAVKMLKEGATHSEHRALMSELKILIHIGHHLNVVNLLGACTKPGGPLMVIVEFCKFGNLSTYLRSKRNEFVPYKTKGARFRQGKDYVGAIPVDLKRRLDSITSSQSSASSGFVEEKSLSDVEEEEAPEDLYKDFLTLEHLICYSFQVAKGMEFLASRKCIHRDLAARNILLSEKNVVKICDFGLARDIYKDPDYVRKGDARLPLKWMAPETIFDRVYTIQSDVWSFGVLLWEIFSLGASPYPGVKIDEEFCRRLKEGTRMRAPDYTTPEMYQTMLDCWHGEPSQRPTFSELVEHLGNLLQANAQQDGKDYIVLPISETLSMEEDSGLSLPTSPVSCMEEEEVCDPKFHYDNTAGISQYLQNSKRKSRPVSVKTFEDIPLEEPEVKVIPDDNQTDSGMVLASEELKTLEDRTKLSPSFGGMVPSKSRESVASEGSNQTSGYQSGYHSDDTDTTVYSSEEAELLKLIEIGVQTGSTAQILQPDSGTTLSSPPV

pIC50: 7.34
Compound: Cc1sc2ncnc(N)c2c1-c1ccc(NC(=O)Nc2cc(C(F)(F)F)ccc2F)cc1
